Several values for one entry are separate records, joined by “and”; a condition that tells them apart may be missing. Equal entries are not always repeated.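 96-well plates; 48 h exposure; 5 concentrations. Endpoints by linear interpolation between flanking doses. Not reached: highest tested concentration assigned. Here, GI50 denotes the concentration required for 50% inhibition of growth. TGI marks complete inhibition of growth.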
Columns and labels:
Assay in all cases: NCI-60 cell line screen, 48 h
DMS 273 small cell lung = test system: DMS 273 small cell lung
HOP-18 NSCLC = test system: HOP-18 NSCLC
M19-MEL melanoma = test system: M19-MEL melanoma
SNB-78 CNS = test system: SNB-78 CNS
BT-549 breast = test system: BT-549 breast
DU-145 prostate = test system: DU-145 prostate
MCF7 breast = test system: MCF7 breast
MDA-MB-231 breast = test system: MDA-MB-231 breast
NCI/ADR-RES ovarian = test system: NCI/ADR-RES ovarian
T-47D breast = test system: T-47D breast

| Compound | TGI (DMS 273 small cell lung) [µM] | TGI (HOP-18 NSCLC) [µM] | TGI (M19-MEL melanoma) [µM] | TGI (SNB-78 CNS) [µM] | also measured |
| --- | --- | --- | --- | --- | --- |
| O=[N+]([O-])c1cccc(C2SCc3nc4ccccc4n32)c1 (configuration not stated) | > 100 | > 100 | > 100 | > 100 | – |
| C/C=C/C=N/N(c1nnc(-c2ccccc2)c(-c2ccccc2)n1)S(=O)(=O)c1ccc(C)cc1 | 29.8 | 27.4 | 36.3 | 83.2 | – |
| O=C(c1cc(=O)c2ccc(O)cc2o1)c1ccc(Cl)cc1Cl | > 31.6 | > 100 | > 100 | > 100 | – |
| CCCOc1ccc(/C(Cl)=C(\C=O)c2ccc(OC)c(OC)c2)cc1OCCC | 40.1 | > 100 | 31.1 | > 100 | – |
| O=C(CC(=O)N1N=C(n2ccc3ccccc32)CC1c1ccccc1)Nc1cccc(Cl)c1 (configuration not stated) | > 100 | > 100 | > 100 | > 100 | – |
| O=C1CCCCC/C=C2/CC[C@H](Sc3ccccc3)[C@@H]12 | > 100 | > 100 | > 100 | > 100 | – |
| CCCCCCCCCCCCCCCCOC(=O)C(C(=O)OCCCCCCCCCCCCCCCC)[N+](C)(C)CCOC(C)=O | 25 | 30.3 | 30.4 | 45.7 | – |
| CC(C)c1cc(C(C)C)c(S(=O)(=O)NN)c(C(C)C)c1 | > 100 | > 100 | > 100 | > 100 | – |
| CC(=O)NNc1nc(C)c(C(=O)NNC(=O)C(=O)Nc2ccc(C)c(C)c2)s1 | > 100 | > 100 | > 100 | > 100 | – |
| COc1ccc(/C=C2/C(=O)N(C(=O)c3ccccc3O)N=C2C)cc1OC | – | – | 65.4 | > 100 | TGI (BT-549 breast): > 100 µM; TGI (DU-145 prostate): > 100 µM; TGI (MCF7 breast): 33.9 µM; TGI (MDA-MB-231 breast): > 100 µM; TGI (NCI/ADR-RES ovarian): > 100 µM |
| COc1ccc(/C=C/C(=O)c2sc(N)nc2C)cc1 | > 100 | > 100 | > 100 | > 100 | – |
| CCc1cccc(C(C)CC)c1N=C(NC(=O)c1ccccc1C(=O)NC(=Nc1c(CC)cccc1C(C)CC)SC)SC (configuration not stated) | – | > 100 | > 100 | > 100 | – |
| COC(=O)CCC(NC(=S)N/N=C(\C)c1ccccn1)C(=O)OC (configuration not stated) | – | > 100 | > 100 | – | – |
| NC(=S)N/N=C(/CC(=O)c1ccc([N+](=O)[O-])cc1)C(=O)Nc1ncc([N+](=O)[O-])s1 | – | – | > 100 | > 100 | – |
| CC(=O)OC1(C#N)CC2OC1C1C2N1C(=O)c1ccccc1 (configuration not stated) | – | – | > 100 | > 100 | – |
| CC(=O)OC1C=CC2CCN3C(=O)c4cc5c(cc4[C@H]1C23)OCO5 (some centres not stated) | > 100 | – | > 100 | > 100 | – |
| C/C(=N\NC(=O)CC(=O)Nc1ccc(C)cc1)c1cc2ccccc2oc1=O | > 100 | > 100 | > 100 | – | – |
| C/C(=N/O)C1CC=C(S(=O)(=O)c2ccccc2)C1 (configuration not stated) | > 100 | – | > 100 | – | – |
| Cc1ccc2nc3c(Cl)cc(=O)cc-3sc2c1 | 39.3 | – | 36 | > 100 | – |
| CC1=C(C(=O)Nc2cccc(C(F)(F)F)c2)C(c2ccc(O)cc2)C(C(=O)Nc2cccc(C(F)(F)F)c2)=C(C)N1 | – | – | 40.3 | 83.2 | – |
| COc1cc2cc3c4c(cc(OC)c(OC)c4c2cc1OC)CCN3C(=O)CCCC(=O)O | > 100 | – | > 100 | > 100 | – |
| Nc1nnc2nc(CC(=O)/C=C/c3ccccc3)c(=O)[nH]n12 | > 100 | – | > 100 | > 100 | – |
| C=CCN1C(=O)/C(=c2\sc3n(c2=O)C2C(NN=3)N(CC)C(=O)N2CC)c2ccccc21 (configuration not stated) | – | – | – | – | GI50 (BT-549 breast): 1.65 µM; TGI (BT-549 breast): > 75.6 µM; GI50 (DU-145 prostate): 0.59 µM; TGI (DU-145 prostate): > 37.3 µM; GI50 (MCF7 breast): 0.448 µM; TGI (MCF7 breast): > 100 µM; GI50 (MDA-MB-231 breast): 1.23 µM; TGI (MDA-MB-231 breast): 7.96 µM; GI50 (NCI/ADR-RES ovarian): 0.434 µM; TGI (NCI/ADR-RES ovarian): > 40.5 µM; GI50 (T-47D breast): 0.438 µM; TGI (T-47D breast): > 100 µM |
| N/C(=N\O)c1ncc(-c2ccc(C(F)(F)F)cc2)c(NC2CCCCCC2)n1 | – | – | – | – | GI50 (BT-549 breast): 4.54 µM; TGI (BT-549 breast): 18.2 µM; GI50 (DU-145 prostate): 6.78 µM and 3.38 µM; TGI (DU-145 prostate): 16.1 µM; GI50 (MCF7 breast): 4.65 µM and 1.43 µM; TGI (MCF7 breast): 12.3 µM; GI50 (MDA-MB-231 breast): 3.96 µM; TGI (MDA-MB-231 breast): 19.3 µM; GI50 (NCI/ADR-RES ovarian): 4.41 µM and 0.593 µM; TGI (NCI/ADR-RES ovarian): 13.4 µM; GI50 (T-47D breast): 6.89 µM and 3.59 µM; TGI (T-47D breast): 16.8 µM |
| CN(C)c1cccc(-c2cc(=O)c3ccccc3[nH]2)c1 | > 100 | – | > 100 | > 100 | – |
| COc1ccc(/C=C2\N=C(c3ccccc3)OC2=O)c(OCc2ccccc2)c1 | > 100 | > 100 | > 100 | – | – |
| O=C(Oc1cccnc1)c1ccccc1Nc1ccnc(C(F)(F)F)c1 | – | – | – | – | GI50 (BT-549 breast): 0.104 µM; TGI (BT-549 breast): 2.18 µM; GI50 (DU-145 prostate): 0.273 µM; TGI (DU-145 prostate): 3.17 µM; GI50 (MCF7 breast): 0.0865 µM; TGI (MCF7 breast): > 45.5 µM; GI50 (MDA-MB-231 breast): 0.233 µM; TGI (MDA-MB-231 breast): > 62.2 µM; GI50 (NCI/ADR-RES ovarian): 0.186 µM; TGI (NCI/ADR-RES ovarian): > 100 µM; GI50 (T-47D breast): 23 µM; TGI (T-47D breast): 51.5 µM |
| CCOc1ccccc1NC(=O)C(=O)CC(=O)C1=C(C)Nc2ccccc2S1 | > 100 | – | > 100 | > 100 | – |
| Cc1cc2c3ccccc3n(C)c2c2c1C(=O)c1ccccc1C2=O | 50.1 | – | 10.3 | – | – |

Reference: PubChem BioAssay (NCI)
